{"source": "patent US12102648B2", "about": "“Orally-bioavailable nucleoside analogs” (priority 2021, dated 2024)", "assay": "in vitro", "assay_type": "in vitro ADME", "settings": "human", "experimental": "The bidirectional permeability of compounds across the Caco-2 cell monolayer was assessed. The Caco-2 model is a widely used in vitro model for small intestinal absorption and potential for efflux.\nCell culture. Caco-2 cells were grown in DMEM supplemented with 10% fetal bovine serum (FBS), 1% Penicillin-Streptomycin and 1% MEM NEAA. The cells were incubated at 37° C., 5% CO2/95% air and saturated humidity. After reaching 80-90% confluency, the cells were gently detached with trypsin. Cells at passage 39 were seeded on the 24-well BD insert system at the density of 8×10^4 cells/cm^2 and cultured for 19 days with medium changed every 2-3 days. Measure the transepithelial electrical resistance (TEER) value of each well. The wells can be used only when their TEER values are greater than 600 Ohms/cm^2.\nTransport assay. After removing the cell culture medium from the 24-well insert plate, the cells were rinsed with warm transport buffer. Appropriate dosing and receiving solutions were applied to the donor and receiver chambers to initiate the transport assay in apical to basolateral (A to B) or basolateral to apical (B to A) directions ([…] for apical and basolateral wells, respectively). Duplicate wells in each direction were used for the test compound and control compound. The plate was incubated in CO2 incubator at 37° C., with 5% CO2/95% air and saturated humidity without shaking. The sample after 10-minute incubation was used as the T0 sample, and the sample after 90-minute incubation was used as the T90 sample. To and T90 samples were collected from the donor and receiver side of each well at the designed timepoint, mixed with the transport buffer and acetonitrile/MeOH (1:1, v/v) and the internal standard for LC/MS/MS analysis. All samples were vortexed and centrifuged at 4000 rpm at 4° C. for 15 minutes, diluted with pure water and stored at 4° C. before bioanalysis by LC/MS/MS.\nSample analysis. The concentrations of test compounds and control compounds in Caco-2 cells were quantitatively determined by LC/MS/MS method after protein precipitation.\nCalculations. The apparent permeability (Papp, cm/s), efflux ratio (ER) and recovery parameters were calculated for Caco-2 drug transport assay using the following equations:\n[formula] [formula] where VR is the solution volume in the receiver chamber (0.4 mL on the apical side, 1.2 mL on the basolateral side); Area is the surface area for the insert membrane, i.e., 0.3 cm^2 for the area of the monolayer; Time is incubation time, expressed in seconds, i.e., 5400 s (90 min) for the current experiment; Co is the initial concentration of test compound or peak area ratio of control compounds in the donor chamber (μM); VD is the volume in the donor chambers (0.4 mL on the apical side, 1.2 mL on the basolateral side); CD and CR are the final concentrations of test compounds or peak area ratio of control compounds in donor and receiver chambers, respectively.\nCompounds with Papp<1.0 are classified as low permeability, Papp between 1-10 are classified as medium permeability, and Papp≥10 are classified as high permeability. An efflux ratio (ER)>2 indicates the compounds are potential substrates for intestinal cell efflux transporters.", "key": {"[1]": {"settings": "Caco-2 monolayer, apical to basolateral, 90-minute incubation, read-out: Papp, A-B"}, "[2]": {"settings": "Caco-2 monolayer, basolateral to apical, 90-minute incubation, read-out: Papp, B-A"}, "[3]": {"settings": "Caco-2 monolayer, ER>2 indicates potential efflux transporter substrate, read-out: ER (efflux ratio)"}}, "note": "Like-named read-outs stand apart in the source and are kept apart here."}
{"smiles": "CCCCC(=O)Nc1ncnn2c([C@]3(C#N)O[C@H](COC(=O)CC(C)C)[C@@H](O)[C@H]3O)ccc12", "note": "[Compound 283, ((2R,3S,4R,5R)-5-cyano-3,4-dihydroxy-5-(4-pentanamidopyrrolo[2,1-f][1,2,4]triazin-7-yl)tetrahydrofuran-2-yl)methyl 3-methylbutanoate]", "values": [{"measurement": "Papp A→B at 90 min", "setting": "Caco-2", "value": 3, "unit": "×10⁻⁶ cm/s"}, {"measurement": "Papp B→A at 90 min", "setting": "Caco-2", "value": 1, "unit": "×10⁻⁶ cm/s"}, {"measurement": "efflux ratio at 90 min", "setting": "Caco-2", "value": 0.34}]}
{"smiles": "CC(C)(C)C(=O)OCOC(=O)Nc1ncnn2c([C@]3(C#N)O[C@H](COC(=O)CC4(N)CCCCC4)[C@@H](O)[C@H]3O)ccc12", "note": "[Compound 367, (((7-((2R,3R,4S,5R)-5-((2-(1-aminocyclohexyl)acetoxy)methyl)-2-cyano-3,4-dihydroxytetrahydrofuran-2-yl)pyrrolo[2,1-f][1,2,4]triazin-4-yl)carbamoyl)oxy)methyl pivalate]", "values": [{"measurement": "Papp A→B at 90 min", "setting": "Caco-2", "value": 2.8, "unit": "×10⁻⁶ cm/s"}, {"measurement": "Papp B→A at 90 min", "setting": "Caco-2", "value": 1.6, "unit": "×10⁻⁶ cm/s"}, {"measurement": "efflux ratio at 90 min", "setting": "Caco-2", "value": 0.57}]}
{"smiles": "N#C[C@@]1(c2ccc3c(NC(=O)c4ccccc4)ncnn23)O[C@H](CO)[C@@H](OC(=O)Cc2ccccc2)[C@H]1O", "note": "[Compound 143, (2R,3S,4R,5R)-5-(4-benzamidopyrrolo[2,1-f][1,2,4]triazin-7-yl)-5-cyano-4-hydroxy-2-(hydroxymethyl)tetrahydrofuran-3-yl 2-phenylacetate]", "values": [{"measurement": "Papp A→B at 90 min", "setting": "[1]", "value": 0.67, "unit": "×10⁻⁶ cm/s"}, {"measurement": "Papp B→A at 90 min", "setting": "[2]", "value": 0.12, "unit": "×10⁻⁶ cm/s"}, {"measurement": "efflux ratio at 90 min", "setting": "[3]", "value": 0.18}]}
{"smiles": "CC(=O)Nc1ncnn2c([C@]3(C#N)O[C@H](COC(=O)[C@@H](N)C(C)(C)C)[C@@H](OC(=O)CC4CCCCC4)[C@H]3O)ccc12", "note": "[Compound 373, ((2R,3S,4R,5R)-5-(4-acetamidopyrrolo[2,1-f][1,2,4]triazin-7-yl)-5-cyano-3-(2-cyclohexylacetoxy)-4-hydroxytetrahydrofuran-2-yl)methyl (S)-2-amino-3,3-dimethylbutanoate]", "values": [{"measurement": "Papp A→B at 90 min", "setting": "Caco-2", "value": 24, "unit": "×10⁻⁶ cm/s"}, {"measurement": "Papp B→A at 90 min", "setting": "Caco-2", "value": 29, "unit": "×10⁻⁶ cm/s"}, {"measurement": "efflux ratio at 90 min", "setting": "Caco-2", "value": 1.2}]}
{"smiles": "N#C[C@@]1(c2ccc3c(NC(=O)[C@@H](N)Cc4ccc(F)cc4)ncnn23)O[C@H](COC(=O)Cc2ccccc2)[C@@H](O)[C@H]1O", "note": "[Compound 97, ((2R,3S,4R,5R)-5-(4-((S)-2-amino-3-(4-fluorophenyl)propanamido)pyrrolo[2,1-f][1,2,4]triazin-7-yl)-5-cyano-3,4-dihydroxytetrahydrofuran-2-yl)methyl 2-phenylacetate]", "values": [{"measurement": "Papp A→B at 90 min", "setting": "[1]", "value": 3.8, "unit": "×10⁻⁶ cm/s"}, {"measurement": "Papp B→A at 90 min", "setting": "[2]", "value": 6.6, "unit": "×10⁻⁶ cm/s"}, {"measurement": "efflux ratio at 90 min", "setting": "[3]", "value": 1.8}]}
{"smiles": "CCCCCOC(=O)Nc1ncnn2c([C@]3(C#N)O[C@H](COC(C)=O)[C@@H](O)[C@H]3O)ccc12", "note": "[Compound 87, ((2R,3S,4R,5R)-5-cyano-3,4-dihydroxy-5-(4-(((pentyloxy)carbonyl)amino)pyrrolo[2,1-f][1,2,4]triazin-7-yl)tetrahydrofuran-2-yl)methyl acetate]", "values": [{"measurement": "Papp A→B at 90 min", "setting": "Caco-2", "value": 5.5, "unit": "×10⁻⁶ cm/s"}, {"measurement": "Papp B→A at 90 min", "setting": "Caco-2", "value": 14, "unit": "×10⁻⁶ cm/s"}, {"measurement": "efflux ratio at 90 min", "setting": "Caco-2", "value": 2.7}]}
{"smiles": "CCC(=O)O[C@H]1[C@@H](O)[C@](C#N)(c2ccc3c(N)ncnn23)O[C@@H]1COC(=O)CC1CCCCC1", "note": "[Compound 31, (2R,3S,4R,5R)-5-(4-aminopyrrolo[2,1-f][1,2,4]triazin-7-yl)-5-cyano-2-((2-cyclohexylacetoxy)methyl)-4-hydroxytetrahydrofuran-3-yl propionate]", "values": [{"measurement": "Papp A→B at 90 min", "setting": "Caco-2", "value": 5.6, "unit": "×10⁻⁶ cm/s"}, {"measurement": "Papp B→A at 90 min", "setting": "Caco-2", "value": 5.6, "unit": "×10⁻⁶ cm/s"}, {"measurement": "efflux ratio at 90 min", "setting": "Caco-2", "value": 1}]}
{"smiles": "CC(C)(C)C(=O)OCOC(=O)Nc1ncnn2c([C@]3(C#N)O[C@H](CO)[C@@H](OC(=O)CC4CCCCC4)[C@H]3O)ccc12", "note": "[Compound 370, (((7-((2R,3R,4S,5R)-2-cyano-4-(2-cyclohexylacetoxy)-3-hydroxy-5-(hydroxymethyl)tetrahydrofuran-2-yl)pyrrolo[2,1-f][1,2,4]triazin-4-yl)carbamoyl)oxy)methyl pivalate]", "values": [{"measurement": "Papp A→B at 90 min", "setting": "Caco-2", "value": 0.3, "unit": "×10⁻⁶ cm/s"}, {"measurement": "Papp B→A at 90 min", "setting": "Caco-2", "value": 0.23, "unit": "×10⁻⁶ cm/s"}, {"measurement": "efflux ratio at 90 min", "setting": "Caco-2", "value": 0.77}]}
{"smiles": "N#C[C@@]1(c2ccc3c(NC(=O)[C@@H](N)Cc4ccc(F)cc4)ncnn23)O[C@H](COC(=O)CC2CCCCC2)[C@@H](O)[C@H]1O", "note": "[Compound 96, ((2R,3S,4R,5R)-5-(4-((S)-2-amino-3-(4-fluorophenyl)propanamido)pyrrolo[2,1-f][1,2,4]triazin-7-yl)-5-cyano-3,4-dihydroxytetrahydrofuran-2-yl)methyl 2-cyclohexylacetate]", "values": [{"measurement": "Papp A→B at 90 min", "setting": "Caco-2", "value": 0.45, "unit": "×10⁻⁶ cm/s"}, {"measurement": "Papp B→A at 90 min", "setting": "Caco-2", "value": 5.2, "unit": "×10⁻⁶ cm/s"}, {"measurement": "efflux ratio at 90 min", "setting": "Caco-2", "value": 12}]}
{"smiles": "CC(=O)O[C@@H]1[C@H](OC(=O)[C@@H](N)C(C)C)[C@@H](COC(=O)Cc2ccccc2)O[C@@]1(C#N)c1ccc2c(N)ncnn12", "note": "[Compound 343, (2R,3R,4R,5R)-4-acetoxy-5-(4-aminopyrrolo[2,1-f][1,2,4]triazin-7-yl)-5-cyano-2-((2-phenylacetoxy)methyl)tetrahydrofuran-3-yl L-valinate]", "values": [{"measurement": "Papp A→B at 90 min", "setting": "[1]", "value": 1.2, "unit": "×10⁻⁶ cm/s"}, {"measurement": "Papp B→A at 90 min", "setting": "[2]", "value": 6.5, "unit": "×10⁻⁶ cm/s"}, {"measurement": "efflux ratio at 90 min", "setting": "[3]", "value": 5.6}]}
{"smiles": "N#C[C@@]1(c2ccc3c(N)ncnn23)O[C@H](COC(=O)CC2CCC(F)(F)CC2)[C@@H](O)[C@H]1O", "note": "[Compound 262, ((2R,3S,4R,5R)-5-(4-aminopyrrolo[2,1-f][1,2,4]triazin-7-yl)-5-cyano-3,4-dihydroxytetrahydrofuran-2-yl)methyl 2-(4,4-difluorocyclohexyl)acetate]", "values": [{"measurement": "Papp A→B at 90 min", "setting": "Caco-2", "value": 0.91, "unit": "×10⁻⁶ cm/s"}, {"measurement": "Papp B→A at 90 min", "setting": "Caco-2", "value": 4.4, "unit": "×10⁻⁶ cm/s"}, {"measurement": "efflux ratio at 90 min", "setting": "Caco-2", "value": 4.8}]}
{"smiles": "CNc1nc(NC(=O)CC(C)C)nc2c1ncn2[C@@H]1O[C@H](COC(C)=O)[C@@H](OC(=O)CC(C)C)[C@@]1(C)F", "note": "[Compound 332, (2R,3R,4R,5R)-2-(acetoxymethyl)-4-fluoro-4-methyl-5-(6-(methylamino)-2-(3-methylbutanamido)-9H-purin-9-yl)tetrahydrofuran-3-yl 3-methylbutanoate]", "values": [{"measurement": "Papp A→B at 90 min", "setting": "Caco-2", "value": 11, "unit": "×10⁻⁶ cm/s"}, {"measurement": "Papp B→A at 90 min", "setting": "Caco-2", "value": 2.6, "unit": "×10⁻⁶ cm/s"}, {"measurement": "efflux ratio at 90 min", "setting": "Caco-2", "value": 0.22}]}
{"smiles": "N#C[C@@]1(c2ccc3c(N)ncnn23)O[C@H](COC(=O)CC2CCC(C(F)(F)F)CC2)[C@@H](OC(=O)CC2CCC(C(F)(F)F)CC2)[C@H]1O", "note": "(stereo partly drawn) [Compound 271, (2R,3S,4R,5R)-5-(4-aminopyrrolo[2,1-f][1,2,4]triazin-7-yl)-5-cyano-4-hydroxy-2-((2-(4-(trifluoromethyl)cyclohexyl)acetoxy)methyl)tetrahydrofuran-3-yl 2-(4-(trifluoromethyl)cyclohexyl)acetate]", "values": [{"measurement": "Papp A→B at 90 min", "setting": "Caco-2", "value": 0.06, "unit": "×10⁻⁶ cm/s"}, {"measurement": "Papp B→A at 90 min", "setting": "Caco-2", "value": 0.52, "unit": "×10⁻⁶ cm/s"}, {"measurement": "efflux ratio at 90 min", "setting": "Caco-2", "value": 8.7}]}
{"smiles": "CC(C)CC(=O)O[C@H]1[C@@H](O)[C@](C#N)(c2ccc3c(N)ncnn23)O[C@@H]1COC(=O)Cc1ccccc1", "note": "[Compound 41, (2R,3S,4R,5R)-5-(4-aminopyrrolo[2,1-f][1,2,4]triazin-7-yl)-5-cyano-4-hydroxy-2-((2-phenylacetoxy)methyl)tetrahydrofuran-3-yl 3-methylbutanoate]", "values": [{"measurement": "Papp A→B at 90 min", "setting": "[1]", "value": 19, "unit": "×10⁻⁶ cm/s"}, {"measurement": "Papp B→A at 90 min", "setting": "[2]", "value": 31, "unit": "×10⁻⁶ cm/s"}, {"measurement": "efflux ratio at 90 min", "setting": "[3]", "value": 1.6}]}
{"smiles": "CC(C)(C)C(=O)OCO[C@H]1[C@@H](O)[C@](C#N)(c2ccc3c(N)ncnn23)O[C@@H]1COC(=O)Cc1ccccc1", "note": "[Compound 48, {[(2R,3S,4R,5R)-5-{4-aminopyrrolo[2,1-f][1,2,4]triazin-7-yl}-5-cyano-4-hydroxy-2-{[(2-phenylacetyl)oxy]methyl}oxolan-3-yl]oxy}methyl 2,2-dimethylpropanoate]", "values": [{"measurement": "Papp A→B at 90 min", "setting": "[1]", "value": 6.9, "unit": "×10⁻⁶ cm/s"}, {"measurement": "Papp B→A at 90 min", "setting": "[2]", "value": 1.9, "unit": "×10⁻⁶ cm/s"}, {"measurement": "efflux ratio at 90 min", "setting": "[3]", "value": 0.27}]}
